Measured values published in PubChem BioAssay AID1259407 (Chemical Carcinogenesis Research Information System (CCRIS), 2018).
Entries after “also recorded” stand apart in the source; their conditions may differ. Activity calls are given as the source filed them. No rule for the calls is given here. Where a SMILES comes first, the peptide text is derived from it.

Test system: CCRIS mutagenicity, Ames/micronucleus/aberration tests
Assay: CCRIS mutagenicity studies
[1] = Test System: AMES SALMONELLA TYPHIMURIUM, Strain/Indicator: TA100, Metabolic Activation: NONE, Method: STANDARD PLATE
[2] = Test System: AMES SALMONELLA TYPHIMURIUM, Strain/Indicator: TA98, Metabolic Activation: NONE, Method: STANDARD PLATE
[3] = Test System: AMES SALMONELLA TYPHIMURIUM, Strain/Indicator: TA98, Metabolic Activation: RAT, LIVER, S-9, AROCLOR 1254, Method: STANDARD PLATE
[4] = Test System: AMES SALMONELLA TYPHIMURIUM, Strain/Indicator: TA100, Metabolic Activation: RAT, LIVER, S-9, AROCLOR 1254, Method: STANDARD PLATE
[5] = Test System: AMES SALMONELLA TYPHIMURIUM, Strain/Indicator: TA97, Metabolic Activation: NONE, Method: STANDARD PLATE
[6] = Test System: AMES SALMONELLA TYPHIMURIUM, Strain/Indicator: TA102, Metabolic Activation: NONE, Method: STANDARD PLATE
[7] = Test System: AMES SALMONELLA TYPHIMURIUM, Strain/Indicator: TA100, Metabolic Activation: S-9, Method: STANDARD PLATE
[8] = Test System: AMES SALMONELLA TYPHIMURIUM, Strain/Indicator: TA1537, Metabolic Activation: NONE, Method: STANDARD PLATE
[9] = Test System: AMES SALMONELLA TYPHIMURIUM, Strain/Indicator: TA1535, Metabolic Activation: NONE, Method: STANDARD PLATE
[10] = Test System: AMES SALMONELLA TYPHIMURIUM, Strain/Indicator: TA1535, Metabolic Activation: RAT, LIVER, S-9, AROCLOR 1254, Method: STANDARD PLATE
[11] = Test System: AMES SALMONELLA TYPHIMURIUM, Strain/Indicator: TA1537, Metabolic Activation: RAT, LIVER, S-9, AROCLOR 1254, Method: STANDARD PLATE

ClCc1c2ccccc2cc2c1ccc1ccccc12
mutagenic call [1]: active; positive

NC(Cc1ccc(O)cc1)C(=O)O (stereo not given)
mutagenic call [2]: inactive; negative | mutagenic call [3]: inactive; negative | mutagenic call [1]: inactive; negative | mutagenic call [4]: inactive; negative

CCc1cccc(NC(=O)c2csc([N+](=O)[O-])c2)c1
mutagenic call [2]: active; positive | mutagenic call [1]: active; positive

OC[C@@H](O)[C@@H](O)[C@H](O)[C@@H](O)CO
mutagenic call (End Point: IN VITRO CHROMOSOMAL ABERRATIONS, Test System: CHO-WBL CELLS, Metabolic Activation: NONE): active; positive (structural changes); osmolality of solution decisive factor | mutagenic call (Test System: AMES SALMONELLA TYPHIMURIUM, Strain/Indicator: TA97A, Metabolic Activation: NONE, Method: PREINCUBATION): inactive; negative | mutagenic call (Test System: AMES SALMONELLA TYPHIMURIUM, Strain/Indicator: TA97A, Metabolic Activation: RAT, LIVER, S-9, AROCLOR 1254, Method: PREINCUBATION): inactive; negative | mutagenic call (Test System: AMES SALMONELLA TYPHIMURIUM, Strain/Indicator: TA102, Metabolic Activation: NONE, Method: PREINCUBATION): inactive; negative | mutagenic call (Test System: AMES SALMONELLA TYPHIMURIUM, Strain/Indicator: TA102, Metabolic Activation: RAT, LIVER, S-9, AROCLOR 1254, Method: PREINCUBATION): inactive; negative

O=[N+]([O-])c1ccc(/C=N/n2cccn2)o1
mutagenic call [5]: active; positive | mutagenic call [2]: active; positive | mutagenic call [1]: active; positive | mutagenic call [6]: active; positive

Cl/C=C(/Cl)c1c(Cl)c(Cl)c(Cl)c(Cl)c1Cl
mutagenic call [2]: inactive; negative | mutagenic call [3]: inactive; negative | mutagenic call [1]: inactive; negative | mutagenic call [4]: inactive; negative

CCCCCCCC(=O)Nc1snc2ccccc12
mutagenic call [1]: inactive; negative | mutagenic call [7]: inactive; negative | mutagenic call [8]: inactive; negative | mutagenic call (Test System: AMES SALMONELLA TYPHIMURIUM, Strain/Indicator: TA1537, Metabolic Activation: S-9, Method: STANDARD PLATE): inactive; negative

CC(C)C[C@H](NC(=O)[C@H](Cc1ccccc1)NC(=O)CNC(=O)CN)C(=O)O (H-GGFL-OH)
mutagenic call [2]: inactive; negative | mutagenic call [3]: inactive; negative | mutagenic call [1]: inactive; negative | mutagenic call [4]: inactive; negative | mutagenic call [9]: inactive; negative | mutagenic call [10]: inactive; negative | mutagenic call [8]: inactive; negative | mutagenic call [11]: inactive; negative

Cc1ccc(/C(C#N)=C\C=C\c2ccccc2[N+](=O)[O-])cc1
mutagenic call (Test System: AMES SALMONELLA TYPHIMURIUM, Strain/Indicator: TA97A, Metabolic Activation: NONE, Method: STANDARD PLATE): active; positive

CC(C)(C)c1cc(Cc2cc(C(C)(C)C)c(O)c(C(C)(C)C)c2)cc(C(C)(C)C)c1O
mutagenic call [5]: inactive; negative | mutagenic call (Test System: AMES SALMONELLA TYPHIMURIUM, Strain/Indicator: TA97, Metabolic Activation: S-9, Method: STANDARD PLATE): inactive; negative | mutagenic call [2]: inactive; negative | mutagenic call (Test System: AMES SALMONELLA TYPHIMURIUM, Strain/Indicator: TA98, Metabolic Activation: S-9, Method: STANDARD PLATE): inactive; negative | mutagenic call [1]: inactive; negative | mutagenic call [7]: inactive; negative | mutagenic call [6]: inactive; negative | mutagenic call (Test System: AMES SALMONELLA TYPHIMURIUM, Strain/Indicator: TA102, Metabolic Activation: S-9, Method: STANDARD PLATE): inactive; negative | mutagenic call (Test System: E.COLI, Strain/Indicator: WP2 (PKM101), Metabolic Activation: NONE, Method: STANDARD PLATE): inactive; negative | mutagenic call (Test System: E.COLI, Strain/Indicator: WP2 (PKM101), Metabolic Activation: S-9, Method: STANDARD PLATE): inactive; negative

Nc1[nH]c(=O)nc2c1ncn2[C@@H]1O[C@H](CO)[C@@H](O)[C@H]1O
mutagenic call (Test System: AMES SALMONELLA TYPHIMURIUM, Strain/Indicator: TA100, Metabolic Activation: NONE, Method: PREINCUBATION): inactive; negative

O=C(O)/C=C/c1ccc(O)c(O)c1
mutagenic call (Test System: AMES SALMONELLA TYPHIMURIUM, Strain/Indicator: TA98, Metabolic Activation: HAMSTER, LIVER, S-9, AROCLOR 1254, Method: STANDARD PLATE): inactive; negative | mutagenic call [2]: inactive; negative | mutagenic call [3]: inactive; negative | mutagenic call (Test System: AMES SALMONELLA TYPHIMURIUM, Strain/Indicator: TA100, Metabolic Activation: HAMSTER, LIVER, S-9, AROCLOR 1254, Method: STANDARD PLATE): inactive; negative | mutagenic call [1]: inactive; negative | mutagenic call [4]: inactive; negative | mutagenic call (Test System: AMES SALMONELLA TYPHIMURIUM, Strain/Indicator: TA1535, Metabolic Activation: HAMSTER, LIVER, S-9, AROCLOR 1254, Method: STANDARD PLATE): inactive; negative | mutagenic call [9]: inactive; negative | mutagenic call [10]: inactive; negative | mutagenic call (Test System: AMES SALMONELLA TYPHIMURIUM, Strain/Indicator: TA1537, Metabolic Activation: HAMSTER, LIVER, S-9, AROCLOR 1254, Method: STANDARD PLATE): inactive; negative | mutagenic call [8]: inactive; negative | mutagenic call [11]: inactive; negative | mutagenic call (Test System: AMES SALMONELLA TYPHIMURIUM, Strain/Indicator: TA1538, Metabolic Activation: HAMSTER, LIVER, S-9, AROCLOR 1254, Method: STANDARD PLATE): inactive; negative | mutagenic call (Test System: AMES SALMONELLA TYPHIMURIUM, Strain/Indicator: TA1538, Metabolic Activation: NONE, Method: STANDARD PLATE): inactive; negative | mutagenic call (Test System: AMES SALMONELLA TYPHIMURIUM, Strain/Indicator: TA1538, Metabolic Activation: RAT, LIVER, S-9, AROCLOR 1254, Method: STANDARD PLATE): inactive; negative | mutagenic call (Test System: MOUSE LYMPHOMA, Strain/Indicator: L5178Y (TK+/TK-), Metabolic Activation: NONE, Method: SUSPENSION/PLATE): active; positive. reevaluation of results: positive | mutagenic call (Test System: MOUSE LYMPHOMA, Strain/Indicator: L5178Y (TK+/TK-), Metabolic Activation: RAT, LIVER, S-9, AROCLOR 1254, Method: SUSPENSION/PLATE): inactive; negative; reevaluation of results: negative

COP(=O)(OC)Oc1ccc([N+](=O)[O-])c(C)c1
mutagenic call [2]: inactive; negative | mutagenic call (Test System: AMES SALMONELLA TYPHIMURIUM, Strain/Indicator: TA98, Metabolic Activation: RAT, LIVER, S-9, Method: STANDARD PLATE): active; positive | mutagenic call [1]: inactive; negative | mutagenic call (Test System: AMES SALMONELLA TYPHIMURIUM, Strain/Indicator: TA100, Metabolic Activation: RAT, LIVER, S-9, Method: STANDARD PLATE): inactive; negative

Cc1cc2c(nc(N)n2C)c2nccnc12
mutagenic call [3]: active; positive

O=[N+]([O-])c1cccc2cnsc12
mutagenic call [1]: active; positive

CCNc1cc(NC(C)=O)c(N=Nc2c(Cl)cc([N+](=O)[O-])cc2[N+](=O)[O-])cc1OC
mutagenic call (End Point: IN VITRO CHROMOSOMAL ABERRATIONS, Test System: CHL CELLS, Metabolic Activation: NONE): inactive; negative; precipitation of test chemical observed above 0.01 mg/ml; also recorded: active; positive (ploidy changes); precipitation of test chemical observed above 0.01 mg

CC(C(=O)O)c1ccc(Oc2nccs2)cc1 (stereo not given)
mutagenic call [2]: inactive; negative | mutagenic call [3]: inactive; negative | mutagenic call [1]: inactive; negative | mutagenic call [4]: inactive; negative | mutagenic call [9]: inactive; negative | mutagenic call [10]: inactive; negative | mutagenic call [8]: inactive; negative | mutagenic call [11]: inactive; negative | mutagenic call (Test System: E. COLI, Strain/Indicator: WP2, Metabolic Activation: NONE, Method: STANDARD PLATE): inactive; negative | mutagenic call (Test System: E. COLI, Strain/Indicator: WP2, Metabolic Activation: RAT, LIVER, S-9, AROCLOR 1254, Method: STANDARD PLATE): inactive; negative | mutagenic call (Test System: E. COLI, Strain/Indicator: WP2 UVRA, Metabolic Activation: NONE, Method: STANDARD PLATE): inactive; negative | mutagenic call (Test System: E. COLI, Strain/Indicator: WP2 UVRA, Metabolic Activation: RAT, LIVER, S-9, AROCLOR 1254, Method: STANDARD PLATE): inactive; negative
